US10570176B2, “Anti-hepatitis B virus X protein polypeptide pharmaceutical” (priority 2015, dated 2020)
Non-standard residues stand in square brackets, D forms with d. Residues, ends and D or L forms follow the SMILES beside them.

Columns and labels:
in vivo = conditions: rat, plasma, iv, 3.5 mg/kg
[1] = test system: liver cancer HepAD38 cells integrated with HVB DNA; test: HBeAg secretion ELISA in HepAD38 cells; type: cell-based
Protocol: (§1) 3. Analysis of function of D-TTK001 on HBeAg secreation in liver cancer cells utilizing enzyme-linked immunosorbent assay (ELISA)
(§2) (i) Biosafety cabinet was ultraviolet sterilized for 30 min and purged for 30 min; DMEM/F12 (1:1) culture medium containing 15% fetal bovine serum, HepAD38 cells (or HepG2.2.15 cells) were taken out, sterilized with 75% alcohol, and placed in the biosafety cabinet.
(§3) (ii) Under aseptic conditions, discard old culture medium, add 3 mL 1×PBS each time, wash twice, add 1 mL 0.25% trypsin, the cells were digested until cell rounding as observed in microscope. Add 5 mL culture medium, dispense cells, count with hemocytometer, and dilute with culture medium to a cell number of 1˜2×10^4 cells/mL.
(§4) (iii) Plating 96-well plate. Under aseptic conditions, discard old culture medium, add 3 mL 1×PBS each time, wash twice, add 1 mL 0.05% trypsin, the cells were digested until cell rounding as observed in microscope. Add 10 mL culture medium, dispense cells, count with hemocytometer, and dilute with DMEM/F12(1:1) culture medium, add 100 μL cell suspension into each well to a cell number of 1˜2×10^3 cells/mL. The outer-most wells are not added with cells. Culturing until cell attachment (usually 12 hrs.) and extension. Subsequent tests can be conducted when cells are in good condition.
(2) Applying D-TTK001 (or L-TTK001, i.e., anti-HBxP1#) to liver cancer HepAD38 cells (or HepG2.2.15 cells)
10 mM D-TTK001 (or L-TTK001) mother solution was serially diluted from high concentration to low concentration, added into liver cancer HepAD38 cells (or HepG2.2.15 cells) culture solution to obtain final concentrations of D-TTK001 (or L-TTK001) of 0.1 μM, 1 μM, 10 and 100 μM in respective groups. […]
(3) Applying ELISA to measure HBeAg content in HepAD38 cell (or HepG2.2.15 cell) culture medium
(i) Balancing: place HBeAg assay kit in room temperature for 30 min.
(ii) Preparing solution: dilute concentrated wash liquid for 25 times with purified water.
(iii) Taking out the plate: take out the reaction plate according to experimental requirements (3 wells for negative control, 1 well for positive control, and 1 well for blank control).
(iv) Adding sample: add 75 μL of test samples or negative/positive control into respective wells, gently shake and mix.
(v) Incubating: after sealed with microplate sealer, incubate at 37° C. for 60 min.
(vi) Adding enzyme: add 50 μL of enzyme conjugates into each well except for blank wells, gently shake and mix.
(vii) Incubating: after sealed with microplate sealer, incubate at 37° C. for 30 min.
(viii) Washing plate: remove microplate sealer carefully, manually wash plate for 5 times, pat dry.
(ix) Developing color: add 50 μL each of color-developing agent A and B liquid, gently shake and mix, develop color in dark placed at 37° C. for 30 min.
(§5) (x) Stopping: add 50 μL of stop solution into each well, gently shake and mix, measure the result in ten minutes. Set wavelength of microplate reader to 450 nm, measure OD value for each well after zero setting with blank wells.
The invention also investigates the role of the functional variants of the polypeptide and functional fragments thereof. The sequences as shown in the following table are artificially synthesized D-amino acid substituted sequences on the basis of L-TTK001 (i.e., anti-HBxP1#). The polypeptide fragments were artificially synthesized according to the sequences (method as above), and then, above-mentioned ELISA method was adopted to observe the change in the functions of the polypeptides.

[2] = Acute toxicity test in Kunming white mice; type: in vivo; conditions: 500 mg/kg, tail intravenous injection, observed 24 hrs
Protocol: Control group and experimental group each consists of 10 Kunming white mice, with 5 females and 5 males in each group, respectively. Experimental group were injected with polypeptide D-TTK001 with the concentration of 500 mg/kg (10 mg lyophilized polypeptide dissolved in 0.8 mL sterilized distilled water) by tail intravenous injection; control group were injected with 0.8 mL sterilized distilled water. Consecutively observing the mice for 24 hrs. after injection.

HepG2.2.15 cells = test: HBeAg secretion ELISA in HepG2.2.15 cells; type: cell-based; conditions: 0.1, 1, 10, 100 μM
Protocol: as §1, §2, §3
as §4, with “The outer-most wells are not added with cells. Culturing until cell attachment (usually 12 hrs.) and extension. Subsequent tests can be conducted when cells are in good condition.” left out
as §5

Compound: CSCC[C@@H](NC(=O)[C@H](NC(=O)[C@@H](C)NC(=O)[C@@H](CO)NC(=O)CN)C(C)C)C(=O)N[C@H](Cc1ccccc1)C(=O)N[C@H](CO)C(=O)N[C@H](CO)C(=O)N[C@H](CCCCN)C(=O)N[C@H](CCC(=O)O)C(=O)N[C@H](CCCNC(=N)N)C(=O)NCC(=O)O [D-TTK001, Gly-D-Ser-D-Ala-D-Val-D-Met-D-Phe-D-Ser-D-Ser-D-Lys-D-Glu-D-Arg-Gly] (H-G[dS][dA][dV][dM][dF][dS][dS][dK][dE][dR]G-OH; N-terminus and C-terminus assumed)
- C0 (in vivo): 36500 ng/mL
- Vd (in vivo): 0.207 L/kg
- AUC(0-t) (in vivo; AUC0-t, Mean, rats, intravenous injection 3.5 mg/kg, mean of 6): 20800 ng·h/mL
- AUC(0-inf) (in vivo; AUC0-∞, Mean, rats, intravenous injection 3.5 mg/kg, mean of 6): 24100 ng·h/mL
- clearance (in vivo; CL, Mean, rats, intravenous injection 3.5 mg/kg, mean of 6): 3 mL/min/kg
- Cmax (in vivo; Cmax, Mean, rats, intravenous injection 3.5 mg/kg, mean of 6): 35800 ng/mL
- half-life (in vivo; t½, Mean, rats, intravenous injection 3.5 mg/kg, mean of 6): 55.3 min
- Inhibition of HBeAg secretion levels ([1]; 10 μM): most significant effect
- Minimum effective dose on HBeAg secretion levels ([1]; 0.1, 1, 10, 100 μM): 0.1 µM
- acute toxicity: behaviors [2]: do not have abnormal behaviors
- acute toxicity: changes in weight as compared with control group [2]: no abnormal changes in weight
- Minimum effective dose on HBeAg secretion levels (HepG2.2.15 cells): 0.1 µM
